Values joined by “and” are separate entries in the source; they are usually repeats but may differ in a detail not shown here. Equal entries are not always repeated.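 Tested at 5 concentrations; 48 h exposure; 96-well plates; endpoints linearly interpolated, else capped at highest concentration. The concentration for 50% growth inhibition is given as GI50. TGI: total growth inhibition.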
Columns and labels:
Assay in all cases: NCI-60 cell line screen, 48 h
SN12C renal = system: SN12C renal
SF-539 CNS = system: SF-539 CNS
IGROV1 ovarian = system: IGROV1 ovarian
MOLT-4 leukemia = system: MOLT-4 leukemia
SW-620 colon = system: SW-620 colon
786-0 renal = system: 786-0 renal
MDA-MB-231 breast = system: MDA-MB-231 breast
EKVX NSCLC = system: EKVX NSCLC
UACC-62 melanoma = system: UACC-62 melanoma
MCF7 breast = system: MCF7 breast

Structure (SMILES) | GI50 (SN12C renal) [µM] | TGI (SN12C renal) | TGI (SF-539 CNS) | GI50 (IGROV1 ovarian) [µM] | TGI (IGROV1 ovarian) | GI50 (MOLT-4 leukemia) [µM] | TGI (MOLT-4 leukemia) [µM] | GI50 (SW-620 colon) [µM] | TGI (SW-620 colon) | GI50 (786-0 renal) [µM] | TGI (786-0 renal) | GI50 (MDA-MB-231 breast) [µM] | TGI (MDA-MB-231 breast) | GI50 (EKVX NSCLC) [µM] | TGI (EKVX NSCLC) | GI50 (UACC-62 melanoma) [µM] | TGI (UACC-62 melanoma) [µM] | GI50 (MCF7 breast) [µM] | TGI (MCF7 breast) [µM] | GI50 (SF-539 CNS) [µM]
C/C=C/C/C=C/CCC(=O)[C@H]1O[C@H]1C(N)=O | 11.5 | 25.3 µM | 31.8 µM | 13.5 | 33.3 µM | 8.56 | 52 | 11.9 | 27.9 µM | 14.8 | 36.1 µM | 13.1 | 26.8 µM | 14.1 | 28.9 µM | 11.4 | 23.9 | 12.6 | 26.1 | –
CCN1/C(=C/C=C/c2n(-c3ccccc3)c3ccc(-c4nc5ccccc5s4)cc3[n+]2CC)N(c2ccccc2)c2ccc(-c3nc4ccccc4s3)cc21 | 0.175 | 2.44 µM | 5.75 µM | 0.75 | > 50 µM | 1.8 | > 50 | 0.445 | > 50 µM | 0.602 | > 50 µM | 0.19 | 1.68 µM | 0.387 | > 50 µM | 0.97 | > 50 | 0.426 | > 50 | 0.854
Fc1ccc(-c2nn3c(-c4ccc(F)c(Cl)c4)nnc3s2)cc1 | 32.3 | > 50 µM | > 50 µM | 33.1 | > 50 µM | 26.3 | > 50 | > 50 | > 50 µM | 35.3 | > 50 µM | 30.5 | > 50 µM | > 50 | > 50 µM | 34.8 | > 50 | 30.3 | > 50 | > 50
COc1cc2c(cc1OCCCCCOc1cc3c(cc1OC)C(=O)N1CC(F)C[C@H]1C=N3)N=C[C@@H]1CC(F)CN1C2=O (stereo partly specified) | < 0.0427 | 0.952 µM | 0.458 µM | 0.0599 | – | < 0.01 | 0.0663 | 0.0701 | 0.452 µM | < 0.01 | 0.16 µM | 0.245 | 0.55 µM | 1.1 | 7.78 µM | 0.0511 | 0.224 | < 0.0108 | 1.31 | 0.0161
CCOc1ccccc1NC(=O)c1cc2ccccc2cc1O | 2.64 | 9.24 µM | 15.8 µM | 4.66 | 38.7 µM | 2.72 | 7.17 | 3.67 | 12.6 µM | 3.34 | 9.13 µM | 2.02 | 4.19 µM | 2.67 | 11.3 µM | 2.18 | 9.55 | 2.49 | 13.1 | 3.05
Nc1ccccc1-c1ccc([N+](=O)[O-])cc1 | 11.2 | > 100 µM | 63 µM | 19 | > 100 µM | 4.28 | > 100 | 19.3 | > 100 µM | 9.16 | > 100 µM | 36.3 | > 100 µM | 8.58 | > 100 µM | 0.756 | 19.4 | 35 | > 100 | 3.92
Cc1nc(-c2ccccc2)c(Cc2ccccc2O)c(=O)[nH]1 | – | > 100 µM | > 100 µM | – | > 100 µM | – | > 100 | – | > 100 µM | – | > 100 µM | – | > 100 µM | – | > 100 µM | – | > 100 | – | > 100 | –
O=S(=O)(Cc1ccc(Cl)cc1Cl)c1ccc(Cl)cc1 | 1.5 | > 100 µM | 3.72 µM | 0.445 | > 21.9 µM | 1.14 | > 100 | 0.365 | > 100 µM | 1.84 | > 100 µM | 2.38 | > 61.6 µM | 2.11 | > 100 µM | 0.502 | > 100 | 0.341 | > 100 | 0.47
CCC1C(=O)OCc2c1cc1n(c2=O)Cc2cc3ccccc3nc2-1 (stereo unspecified) | – | > 100 µM | 5.67 µM | – | > 100 µM | – | > 22 | – | > 100 µM | – | 27.3 µM | – | > 100 µM | – | > 100 µM | – | > 37.6 | – | > 48.6 | –
S=C(N/N=C(/c1ccccc1)c1ccccn1)N1CCCCC1 | 0.171 | 2.18 µM and 2.68 µM | 1.85 µM and 2.09 µM | < 0.001 | 1.65 µM and 2.56 µM | < 0.001 | – | < 0.001 | 1.23 µM and 2.96 µM | < 0.001 | 1.87 µM and 1.88 µM | < 0.001 | 2.42 µM and 2.21 µM | 1.21 | 2.45 µM and 0.558 µM | 0.965 | 3.16 | – | 4.12 | 0.265
Cc1cc(Cl)cc2c(N=Nc3ccccc3[N+](=O)[O-])c(O)[nH]c12 | – | > 100 µM | > 100 µM | – | > 100 µM | – | > 100 | – | > 100 µM | – | > 100 µM | – | > 100 µM | – | > 100 µM | – | > 100 | – | > 100 | –
Cc1ccc(NC(=O)Cc2ccc(/C=C/C(=O)c3ncc[nH]3)cc2)cc1 | 5.91 | > 25 µM | 14 µM | 6.47 | > 25 µM | 5.33 | > 25 | 5.22 | > 25 µM | 4.28 | > 25 µM | 9.46 | > 25 µM | 13.5 | > 25 µM | 8.29 | > 25 | 1.15 | > 25 | 4.77
CCOC(=O)c1sc2ncn(Cc3cccc(Br)c3)c(=O)c2c1C | 11.7 | 47.3 µM | > 100 µM | 0.172 | > 100 µM | 25.3 | > 100 | 97.6 | > 100 µM | 33.9 | > 100 µM | 12.5 | 74.8 µM | 25 | > 100 µM | 19.5 | 92.3 | 31.4 | > 100 | 84.5
O=c1c2c3c(sc2n2c(-c4cc(-c5ccccc5)no4)nnc2n1Cc1ccccc1)CCCC3 | 22.7 | > 100 µM | 72.2 µM | 8.22 | 87.6 µM | 3.72 | 32.7 | 31.4 | > 100 µM | 20.5 | 98.9 µM | 4.94 | 55.2 µM | 8.63 | > 67.6 µM | 17.1 | 44 | 16.3 | > 76.3 | 19.2
CCCc1cc(O)c2c3c(c(=O)oc2c1)CN(C)CC3 | > 100 | > 100 µM | > 100 µM | > 100 | > 100 µM | 44.3 | > 100 | > 100 | > 100 µM | 61.7 | > 100 µM | 35 | > 100 µM | > 100 | > 100 µM | 47.2 | > 100 | 44.8 | > 100 | 43.2
Oc1ccc(CN2CCC(N3CCOCC3)CC2)c2cccnc12 | 47.5 | > 100 µM | > 100 µM | 30.9 | > 100 µM | 30.9 | > 100 | 60 | > 100 µM | 42.2 | > 100 µM | 47.9 | > 100 µM | 36.6 | > 100 µM | 21.3 | 50.2 | 22.7 | 76.8 | 24.2
CN(CCCCCl)P(=O)(OCc1ccc([N+](=O)[O-])o1)OCC1OC(n2ccc(N)nc2=O)C(F)(F)C1O (stereo unspecified) | 0.363 | 9.62 µM | 0.427 µM | 35.4 | > 100 µM | 0.379 | 8.92 | > 62 | > 100 µM | 0.0614 | 1.5 µM | > 49.3 | > 100 µM | 2.48 | > 75.4 µM | 1.1 | > 100 | 0.45 | > 49 | 0.0417
CC(C)Nc1ccc(Nc2ccccc2)cc1 | 27.1 | > 100 µM | 38.6 µM | 14.2 | 37.3 µM | 21.2 | > 100 | 15.8 | 45.8 µM | 17.8 | > 100 µM | 8.32 | 35.6 µM | 12.8 | 44.7 µM | 11.6 | 51.6 | 11.1 | 31.9 | 5.34

From PubChem BioAssay (NCI)
